This is an account of results in ChEMBL document CHEMBL1145395, “De novo design of selective antibiotic peptides by incorporation of unnatural amino acids” (J Med Chem, 2007).

In brackets after ≈: the same amount, converted by molar mass. Activity calls are given as the source filed them. No cut-off for these calls is given here. Non-standard residues stand in square brackets, D forms with d. Residues, ends and D or L forms follow the SMILES beside them. ξ: configuration not given here. Pro(3ξ,4ξ-(CH2)4) = O=C(O)[C@H]1NCC2CCCCC21; Oic = O=C(O)[C@@H]1C[C@@H]2CCCC[C@@H]2N1; Tic = O=C(O)[C@@H]1Cc2ccccc2CN1; dTic = O=C(O)[C@H]1Cc2ccccc2CN1; Orn = NCCC[C@H](N)C(=O)O; GABA = NCCCC(=O)O; βAla = NCCC(=O)O

Data set [1] has as its system Bacillus subtilis. In words: Antibacterial activity against Bacillus subtilis ATCC 43223 at 100 uM. Type of data set: functional, organism-based.
Data set [2] deals with Staphylococcus aureus. In words: Antibacterial activity against methicillin/gentamicin/tetracycline resistant Staphylococcus aureus ATCC 33592 at 100 uM. Type of data set: functional, organism-based.
Data set [3] relates to Mus musculus. In words: Acute toxicity in mouse at 5 mg/kg, ip after 6 days. Type of data set: organism-based. Also noted: dose 5 mg/kg, route intraperitoneal. The note with it: in vivo, 144 h.
For data set [4], the system named is Mus musculus. In words: Acute toxicity in mouse at 125 mg/kg, ip after 6 days. It counts as organism-based. Further details: dose 125 mg/kg, route intraperitoneal. The note with it: in vivo, 144 h.
Data set [5] is described as follows: Toxicity to mouse RBC assessed as hemolytic activity at 100 uM. It counts as cell-based, Erythrocyte. The conditions noted are these: red blood cells, read-out: Activity.
For data set [6], the system named is Mus musculus. In words: Acute toxicity in mouse at 25 mg/kg, ip after 6 days. It counts as organism-based. Also noted: dose 25 mg/kg, route intraperitoneal. The note with it: in vivo, 144 h.
In data set [7] the test system is Mus musculus. In words: Effect on wound healing in CD1 mouse skin at 100 ug applied topically. Type of data set: functional.
The subject of data set [8] is Mus musculus. Put plainly: Effect on wound healing in CD1 mouse skin at 100 ug applied topically after 9 days. It counts as functional.
Data set [9] relates to Staphylococcus aureus. In words: Antibacterial activity against methicillin/gentamicin/tetracycline resistant Staphylococcus aureus ATCC 33592. Type of data set: functional.
The subject of data set [10] is Mus musculus. Put plainly: Effect on wound healing in CD1 mouse skin at 100 ug applied topically after 11 days. It counts as functional.
A further data set relates to Salmonella typhimurium. Put plainly: Antibacterial activity against Salmonella Typhimurium ATCC 13311. Type of data set: functional, Salmonella enterica subsp. enterica serovar Typhimurium. The note with it: Salmonella enterica.
Data set [11] deals with Bacillus subtilis. In words: Antibacterial activity against Bacillus subtilis ATCC 43223. Type of data set: functional.
Data set [12] concerns Mus musculus. In words: Effect on wound healing in CD1 mouse skin at 100 ug applied topically after 3 days. It counts as functional.
In data set [13] the test system is Mus musculus. Put plainly: Effect on wound healing in CD1 mouse skin at 100 ug applied topically after 5 days. Type of data set: functional.
The test system of data set [14] is Mus musculus. Put plainly: Effect on wound healing in CD1 mouse skin at 100 ug applied topically after 7 days. It counts as functional.
The subject of a further data set is Mycobacterium. Put plainly: Antibacterial activity against Mycobacterium ranae ATCC 110. Type of data set: functional.
Data set [15] is described as follows: Toxicity to mouse RBC assessed as hemolytic activity at 25 uM. The note with it: red blood cells, read-out: Activity. It counts as cell-based, Erythrocyte.
Data set [16] has as its system Mus musculus. Put plainly: Acute toxicity in mouse at 1 mg/kg, ip after 6 days. Type of data set: organism-based. Also noted: dose 1 mg/kg, route intraperitoneal. The note with it: in vivo, 144 h.

Broadly, the MIC is the least concentration at which growth counts as inhibited. Low values mean greater potency, high ones weaker potency.

Take `CC[C@H](C)[C@H](NC(=O)[C@H](CCC(=O)O)NC(=O)CNC(=O)[C@@H](NC(=O)[C@H](Cc1ccccc1)NC(=O)[C@H](C)NC(=O)[C@H](CCCCN)NC(=O)CNC(=O)[C@H](Cc1ccccc1)NC(=O)[C@H](CCCCN)NC(=O)CNC(=O)[C@H](C)NC(=O)[C@H](CO)NC(=O)[C@H](Cc1cnc[nH]1)NC(=O)[C@H](CC(C)C)NC(=O)[C@H](Cc1ccccc1)NC(=O)[C@H](CCCCN)NC(=O)CNC(=O)[C@H](NC(=O)CN)[C@@H](C)CC)C(C)C)C(=O)N[C@@H](CCSC)C(=O)N[C@@H](CCCCN)C(=O)N[C@@H](CO)C(N)=O`: the outcome in the data set on Bacillus subtilis [1] and in the data set with Staphylococcus aureus [2] was inactive.
As to `CC(=O)NCC(=O)N[C@@H](Cc1ccccc1)C(=O)N1Cc2ccccc2C[C@H]1C(=O)N1[C@H](C(=O)NCC(=O)N[C@@H](CCCCN)C(=O)N2Cc3ccccc3C[C@H]2C(=O)N2[C@H](C(=O)NCC(=O)N[C@@H](Cc3ccccc3)C(=O)N3Cc4ccccc4C[C@H]3C(=O)N3[C@H](C(=O)NCC(=O)N[C@@H](CCCCN)C(=O)N4Cc5ccccc5C[C@H]4C(=O)N[C@@H](CCCCN)C(=O)N[C@@H](CCCCN)C(=O)N[C@@H](CCCCN)C(=O)N[C@@H](CCCCN)C(N)=O)C[C@@H]4CCCC[C@@H]43)C[C@@H]3CCCC[C@@H]32)C[C@@H]2CCCC[C@@H]21` (Ac-GF[Tic][Oic]GK[Tic][Oic]GF[Tic][Oic]GK[Tic]KKKK-NH2) [listing 1 of 2 here], the Activity result in the data set on Mus musculus [3], in the data set with Mus musculus [4] and with Mus musculus [6] was “Toxic” in each case. Moreover, in [5], the hemolysis at 100 µM came to 14%.
Compound `CC(=O)NCC(=O)N[C@@H](Cc1ccccc1)C(=O)N1Cc2ccccc2C[C@H]1C(=O)N1[C@H](C(=O)NCC(=O)N[C@@H](CCCCN)C(=O)N2Cc3ccccc3C[C@H]2C(=O)N2[C@H](C(=O)NCC(=O)N[C@@H](Cc3ccccc3)C(=O)N3Cc4ccccc4C[C@H]3C(=O)N3[C@H](C(=O)NCC(=O)N[C@@H](CCCCN)C(=O)N4Cc5ccccc5C[C@H]4C(=O)N[C@@H](CCCCN)C(=O)N[C@@H](CCCCN)C(=O)N[C@@H](CCCCN)C(=O)N[C@@H](CCCCN)C(N)=O)C[C@@H]4CCCC[C@@H]43)C[C@@H]3CCCC[C@@H]32)C[C@@H]2CCCC[C@@H]21` (Ac-GF[Tic][Oic]GK[Tic][Oic]GF[Tic][Oic]GK[Tic]KKKK-NH2) [listing 2 of 2 here] gave a CT50 with Mus musculus [7] of 6.1 days. Moreover, the Activity with Mus musculus [8] turned out to be 69.8%; in the data set on Mus musculus [10] it was 77.5%; with Mus musculus [12] it was 36.3%; with Mus musculus [13], 51.5%; with Mus musculus [14], 63.3%. The MIC with Staphylococcus aureus [9] was found to be 3 µM (≈ 7.32 µg/mL); in the data set with Salmonella typhimurium, 10 µM (≈ 24.4 µg/mL); against Bacillus subtilis [11] it was 1 µM (≈ 2.44 µg/mL); against Mycobacterium, 10 µM (≈ 24.4 µg/mL).
Regarding `CC(=O)NCC(=O)N[C@@H](Cc1ccccc1)C(=O)N1Cc2ccccc2C[C@H]1C(=O)N1CC2CCCCC2[C@H]1C(=O)NCC(=O)N[C@@H](CCCN)C(=O)N1Cc2ccccc2C[C@H]1C(=O)N1CC2CCCCC2[C@H]1C(=O)NCC(=O)N[C@@H](Cc1ccccc1)C(=O)N1Cc2ccccc2C[C@H]1C(=O)N1CC2CCCCC2[C@H]1C(=O)NCC(=O)N[C@@H](CCCN)C(=O)N1Cc2ccccc2C[C@H]1C(=O)N[C@@H](CCCN)C(=O)N[C@@H](CCCN)C(=O)N[C@@H](CCCN)C(=O)N[C@@H](CCCN)C(N)=O` (some centres undefined) (Ac-GF[Tic][Pro(3ξ,4ξ-(CH2)4)]G[Orn][Tic][Pro(3ξ,4ξ-(CH2)4)]GF[Tic][Pro(3ξ,4ξ-(CH2)4)]G[Orn][Tic][Orn][Orn][Orn][Orn]-NH2), in the data set on Mus musculus [7], the CT50 was found to be 4.7 days. Further, the Activity with Mus musculus [8] is given as 72.8%; in the data set on Mus musculus [10] it was 81.1%; in the data set on Mus musculus [12], 38.8%; in the data set with Mus musculus [13], 51.2%; with Mus musculus [14] it was 67.2%. In addition, the MIC against Staphylococcus aureus [9] stood at 3 µM (≈ 7.07 µg/mL); against Salmonella typhimurium, 3 µM (≈ 7.07 µg/mL); against Bacillus subtilis [11] it was 0.3 µM (≈ 0.707 µg/mL); against Mycobacterium, 10 µM (≈ 23.6 µg/mL).
Consider `CC(=O)NCCCC(=O)N[C@@H](Cc1ccccc1)C(=O)N1Cc2ccccc2C[C@H]1C(=O)N1[C@H](C(=O)NCCCC(=O)N[C@@H](CCCCN)C(=O)N2Cc3ccccc3C[C@H]2C(=O)N2[C@H](C(=O)NCCCC(=O)N[C@@H](Cc3ccccc3)C(=O)N3Cc4ccccc4C[C@H]3C(=O)N3[C@H](C(=O)NCCCC(=O)N[C@@H](CCCCN)C(=O)N4Cc5ccccc5C[C@H]4C(=O)N[C@@H](CCCCN)C(=O)N[C@@H](CCCCN)C(=O)N[C@@H](CCCCN)C(=O)N[C@@H](CCCCN)C(N)=O)C[C@@H]4CCCC[C@@H]43)C[C@@H]3CCCC[C@@H]32)C[C@@H]2CCCC[C@@H]21` (Ac-[GABA]F[Tic][Oic][GABA]K[Tic][Oic][GABA]F[Tic][Oic][GABA]K[Tic]KKKK-NH2), for which the CT50 in the data set on Mus musculus [7] is 5.7 days. Further, the Activity in the data set with Mus musculus [8] was found to be 72.7%; in the data set with Mus musculus [10], 79%; with Mus musculus [12], 39.7%; in the data set on Mus musculus [13], 54.1%; in the data set with Mus musculus [14] it was 64.9%. Besides, the minimal inhibitory concentration (MIC) worked out at 10 µM (≈ 25.5 µg/mL) in the data set with Staphylococcus aureus [9], 100 µM (≈ 255 µg/mL) in the data set on Salmonella typhimurium, 1 µM (≈ 2.55 µg/mL) in the data set on Bacillus subtilis [11] and 10 µM (≈ 25.5 µg/mL) against Mycobacterium.
For `CC(=O)NCCC(=O)N[C@@H](Cc1ccccc1)C(=O)N1Cc2ccccc2C[C@H]1C(=O)N1CC2CCCCC2[C@H]1C(=O)NCCC(=O)N[C@@H](CCCCN)C(=O)N1Cc2ccccc2C[C@H]1C(=O)N1CC2CCCCC2[C@H]1C(=O)NCCC(=O)N[C@@H](Cc1ccccc1)C(=O)N1Cc2ccccc2C[C@@H]1C(=O)N1CC2CCCCC2[C@H]1C(=O)NCCC(=O)N[C@@H](CCCCN)C(=O)N1Cc2ccccc2C[C@H]1C(=O)N[C@@H](CCCCN)C(=O)N[C@@H](CCCCN)C(=O)N[C@@H](CCCCN)C(=O)N[C@@H](CCCCN)C(N)=O` (some centres undefined) (Ac-[βAla]F[Tic][Pro(3ξ,4ξ-(CH2)4)][βAla]K[Tic][Pro(3ξ,4ξ-(CH2)4)][βAla]F[dTic][Pro(3ξ,4ξ-(CH2)4)][βAla]K[Tic]KKKK-NH2), the Activity entry in the data set on Mus musculus [3], in the data set on Mus musculus [4] and with Mus musculus [6] was “Toxic” each time. Also, the MIC against Staphylococcus aureus [9] is 10 µM (≈ 25 µg/mL); in the data set with Salmonella typhimurium it was 10 µM (≈ 25 µg/mL); against Bacillus subtilis [11], 1 µM (≈ 2.5 µg/mL); against Mycobacterium, 1 µM (≈ 2.5 µg/mL). In data set [5], the hemolysis at 100 µM is 24.4%. Moreover, in data set [15], the hemolysis at 25 µM was 7.4%.
On to `CC(C)C[C@H](NC(=O)[C@@H](N)CCCCN)C(=O)N1Cc2ccccc2C[C@H]1C(=O)N1CC2CCCCC2[C@H]1C(=O)NCC(=O)N[C@@H](CCCCN)C(=O)N1Cc2ccccc2C[C@H]1C(=O)N1CC2CCCCC2[C@H]1C(=O)NCC(=O)N[C@@H](Cc1ccccc1)C(=O)N1Cc2ccccc2C[C@H]1C(=O)N1CC2CCCCC2[C@H]1C(=O)NCC(=O)N[C@@H](CCCCN)C(=O)N1Cc2ccccc2C[C@H]1C(=O)N[C@@H](CCCCN)C(=O)N[C@@H](CCCCN)C(=O)N[C@@H](CCCCN)C(=O)N[C@@H](CCCCN)C(N)=O` (some centres undefined) (H-KL[Tic][Pro(3ξ,4ξ-(CH2)4)]GK[Tic][Pro(3ξ,4ξ-(CH2)4)]GF[Tic][Pro(3ξ,4ξ-(CH2)4)]GK[Tic]KKKK-NH2), for which the Activity result in the data set with Mus musculus [3], in the data set with Mus musculus [16] and in the data set with Mus musculus [6] was “Non-toxic” each time. The MIC against Staphylococcus aureus [9] worked out at 30 µM (≈ 73.1 µg/mL); against Salmonella typhimurium it was 3 µM (≈ 7.31 µg/mL); in the data set with Bacillus subtilis [11], 1 µM (≈ 2.44 µg/mL); against Mycobacterium, 3 µM (≈ 7.31 µg/mL). The hemolysis at 100 µM in [5] was 43.6%. In data set [15], the hemolysis at 25 µM is 24.9%.
